# Source: PMC10910545, “The crystal structure of mycothiol disulfide reductase (Mtr) provides mechanistic insight into the specific low-molecular-weight thiol reductase activity of Actinobacteria” (Acta Crystallographica. Section D, Structural Biology, 2024)
# Key:
# [1] = molecular target: T1, Mtr Ms (mycothiol disulfide reductase) (Mycolicibacterium smegmatis, UniProt A0QVL0); experiment: UV-Vis A465/A280 ratio and yellow crystals; format: binding; settings: copurified cofactor; FAD not modelled in the 4.7 A structure
# T1 construct: gene MSMEG_2611; full-length, 461 residues, pET-22b(+) NdeI/XhoI, E. coli BL21(DE3); homodimer about 100 kDa
# T1 sequence (A0QVL0 1-461): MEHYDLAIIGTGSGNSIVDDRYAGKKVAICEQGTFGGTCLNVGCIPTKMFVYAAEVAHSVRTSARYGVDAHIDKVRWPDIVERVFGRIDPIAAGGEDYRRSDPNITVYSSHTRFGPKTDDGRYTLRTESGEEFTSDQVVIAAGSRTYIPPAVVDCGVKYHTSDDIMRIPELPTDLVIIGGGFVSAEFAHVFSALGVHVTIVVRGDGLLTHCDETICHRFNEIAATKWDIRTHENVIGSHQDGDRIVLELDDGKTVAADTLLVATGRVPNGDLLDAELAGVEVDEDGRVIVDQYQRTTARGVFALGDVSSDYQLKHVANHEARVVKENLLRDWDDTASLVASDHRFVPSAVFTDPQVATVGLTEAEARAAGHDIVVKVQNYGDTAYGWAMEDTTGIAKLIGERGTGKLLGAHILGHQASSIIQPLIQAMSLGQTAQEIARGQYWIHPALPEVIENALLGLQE
# [2] = molecular target: T2, Mtr Re (mycothiol disulfide reductase) (Rhodococcus erythropolis, UniProt C0ZY75); experiment: X-ray crystal structure, […] A; format: binding; settings: copurified cofactor, one FAD per monomer; redox-active Cys39-Cys44 on si face
# T2 construct: full-length, 458 residues, pET-22b(+) NdeI/XhoI, E. coli BL21(DE3); homodimer about 100 kDa
# T2 sequence (C0ZY75 entry or part of it): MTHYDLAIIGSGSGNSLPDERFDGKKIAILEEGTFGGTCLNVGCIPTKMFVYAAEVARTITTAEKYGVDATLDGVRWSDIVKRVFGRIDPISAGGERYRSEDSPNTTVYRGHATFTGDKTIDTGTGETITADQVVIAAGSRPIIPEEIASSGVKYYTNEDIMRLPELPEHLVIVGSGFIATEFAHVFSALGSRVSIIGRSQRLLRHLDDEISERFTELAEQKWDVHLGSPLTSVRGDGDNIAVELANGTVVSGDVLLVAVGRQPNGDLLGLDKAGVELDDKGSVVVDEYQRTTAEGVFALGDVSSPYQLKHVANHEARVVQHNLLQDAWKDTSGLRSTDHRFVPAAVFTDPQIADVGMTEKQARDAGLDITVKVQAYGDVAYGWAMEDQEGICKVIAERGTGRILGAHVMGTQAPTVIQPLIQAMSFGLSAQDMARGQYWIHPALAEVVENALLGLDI
smiles,measurement,setting,value
Cc1cc2nc3c(=O)[nH]c(=O)nc-3n(C[C@H](O)[C@H](O)[C@H](O)COP(=O)(O)OP(=O)(O)OC[C@H]3O[C@@H](n4cnc5c(N)ncnc54)[C@H](O)[C@@H]3O)c2cc1C [FAD],UV-Vis A465/A280 ratio and yellow crystals,[1],support the presence of FAD in both proteins
same,"X-ray crystal structure, 2.9 A",[2],"In Mtr Re , both monomers show strong density for the FAD cofactor"
